For series [1], the system named is GM16513 cells. In words: Catalase import immunofluorescence, high-content screening (% importing cells). It is filed as cell-based, human. The following applies: GM16513 cells, 3 days; for EC50 / Emax: Homo sapiens, 72 h, dose response with 6 concentrations; for EC50: read-out: EC50; for Emax: read-out: Max Efficacy (% Importing cells).
The test system of series [2] is GM16513 cells. In words: Plasmalogens synthesis (LC-MS/MS). The series is classed as cell-based, human. As to the method: The assay was performed in T75 culture flasks for 3 or 10 days. The medium was replaced by fresh medium every 2-3 days. After 3 or 10 days, the cells were harvested and lysated in water (100-200 µL) by freeze/thaw cycle and sonication for 5 min. Total proteins were quantified using BCA assay and 100 µg of total proteins were used for each sample.
After cell lysis, the samples were dried using a rotating evaporator (Genevac EZ-2, SP Scientific), set at 40°C for 2h under vacuum. Then a solution containing water/acetonitrile 20/80 v/v was added to the wells. Before analysis, the samples were centrifuged at 4000 rpm for 20 min at room temperature. For the separation of plasmalogens by liquid chromatography, a Waters Acquity ultra-performance liquid chromatography (UPLC) system (Acquity I-Class, Waters) was used. A Waters Acquity UPLC BEH (Ethylene Bridged Hybrid) C8 column (2.1 × 50mm, particle size 1.7 µm, pore size 130 A, 2.1mm inner diameter) preceded by a metal pre-filter (KrudKatcher Ultra HPLC In-Line Filter, AF0-8497, Phenomenex) was used for separation. The column temperature was maintained at 50°C. The injection volume was 5µL for each analysis. The mobile phase A was composed of water + 0.1% formic acid and the mobile phase B was methanol + 0.1% formic acid. The separation was done using a gradient, with a flow rate set at 0.7 mL/min throughout the separation:
During analysis, the samples were kept at 10°C, and 5 µL of each sample were injected. After separation by liquid chromatography, the analytes were subjected to MS/MS analysis using a Waters Xevo TQSmicro system (Waters). The analytes were ionized using positive electrospray ionization (positive ESI). The molecules were analyzed using MRM mode. The analyzed plasmalogens contained moieties with C16:0, C18:0, C18:1 at the sn-1 position and fatty acid of chain-length 18 to 24 with 1 to 6 unsaturations at the sn-2 position. […] The cellular levels of plasmalogens were calculated using the area of each plasmalogen divided by protein quantity. […] The acquired data were analyzed by the Waters MassLynx software.

Series [3] relates to GM16513 cells. It is filed as cell-based. Particulars: 3 days, PI positive cells (dead cells).
Protocol: Images were acquired using the EnSight multimode plate reader (PerkinElmer) and analysis was done using Columbus analysis software (PerkinElmer). […] Then the total number of cells and the % of dead cells was calculated.
All HDAC inhibitors were tested at 1.3 and 10 µM for 3 days on GM16513 and PEX405 cells.
Series [4] relates to GM16513 cells. The series is described as follows: Beta-oxidation of d4-C24:0 (LC-MS/MS). It is filed as cell-based, human. The method, then: Degradation (to d4-C16:0) and elongation (to d4-C26:0 and d4-C28:0) of d4-VLCFA (very long chain fatty acid) in the cells was measured using d4-C24:0 as substrate (D-6145-CDN isotopes). D4-C24:0 was solubilized in culture medium using α-cyclodetrin, with a molar ratio of d4-C24:0:α-cyclodextrin 1:50. Cyclodextrins, which are cyclic oligosaccharides, are commonly used to solubilize fatty acids by complexation, for supplementation of cell culture media, and serve as vehicle to deliver fatty acids to the cells. Cyclodextrins have a polar surface and a hydrophobic cylindrical cavity that can bind and solubilize a wide variety of hydrophobic molecules, such as fatty acids, while remaining soluble in water. The assay was performed in T75 culture flasks for 3 or 10 days. The medium was replaced by fresh medium every 2-3 days and supplemented with d4-C24:0 for the last 3 days. After 3 or 10 days, cells were harvested and lysated in water (100-200 µL) by freeze/thaw cycle and sonication for 5 min. Total proteins were quantified using BCA assay and 100 µg of total proteins were used for each sample.
After cell lysis, the samples were dried using a rotating evaporator (Genevac EZ-2, SP Scientific), set at 40°C for 2h under vacuum. After evaporation, a hydrolysis mix consisting of 90% acetonitrile and 10% NaOH 1N in water was added to the samples. The samples were incubated for 1h at room temperature under stirring (300 rpm). After hydrolysis, the samples were evaporated using a Genevac device, under vacuum, at 40°C for 2h.
Derivation of free fatty acids was done using a 2.5 mg/mL Na2CO3 solution in DMF and a 2.5 mg/mL TMAE (trimethylammoniumethyl) reagent solution in DMF. The solutions were mixed in a 1:1 ratio, and 200 µL of the mix was added to dry samples to be derived. For the derivation, the samples were incubated for 3h at 50°C. DMF was then evaporated using a Genevac™ device, under vacuum, at 60°C for 4h.
Before injection, the samples were solubilized in a 90/10 acetonitrile/isopropanol mixture with 1% HCl. After solubilization, the samples were stirred and centrifuged at 4000 rpm for 20 min at 10°C.
For the separation of the derived fatty acids by liquid chromatography, a Waters Acquity ultra-performance liquid chromatography (UPLC) system (Acquity I-Class, Waters) was used. […]
After separation by liquid chromatography, the analytes were subjected to MS analysis using a Waters Xevo TQSmicro system (Waters). […] The molecules were analyzed using MRM (multiple reaction monitoring) mode, with the main daughter ion for each derived fatty acid corresponding to the loss of a trimethylammonium moiety (m/z 59). Derived FAs with a chain length from 16 to 28, with no or one unsaturation, were analyzed. […] The acquired data were analyzed by the Waters MassLynx software.

The mark [5] stands for this setting: 0.5 µM for 3 or 10 days, compared to non-treated cells.

Where a name gives a salt, the structure may show the parent alone. Read-outs that look alike come from different tables or passages of the source.

Turning to `O=C(/C=C/c1cccc(S(=O)(=O)Nc2ccccc2)c1)NO` [Belinostat], the “% Importing cells” value with GM16513 cells [1] (1.3 µM) worked out at 95%. In addition, the “% Importing cells” value in the series with GM16513 cells [1] (10 µM) turned out to be 97%. For the same molecule, in the series with GM16513 cells [1], the concentration giving a half-maximal response (EC50) is 200 nM and the Emax was 98%. Further, in the series with GM16513 cells [2] (0.5 µM over 3 or 10 days), the plasmalogen levels result is on record as “increased”. Moreover, the “% PI+ cells” value with GM16513 cells [3] (1.3 µM) turned out to be 4%. Also, the “% PI+ cells” value in the series with GM16513 cells [3] (10 µM) is 21%. Besides, in the series with GM16513 cells [4] (setting [5]), the “relative d4-VLCFA levels (C26, C28)” value is recorded as “decrease” and the “shortest d4-FA (C16, C18) levels” value is “increase”.
Take `CCN(CC)Cc1ccc2cc(COC(=O)Nc3ccc(C(=O)NO)cc3)ccc2c1` [Givinostat (hydrochloride monohydrate), Givinostat]: the “% Importing cells” value came out at 81% in the series with GM16513 cells [1] (1.3 µM) and 32% in the series with GM16513 cells [1] (10 µM). The EC50 in the series on GM16513 cells [1] was found to be 170 nM. Moreover, the Emax with GM16513 cells [1] is 80%. For the same molecule, the plasmalogen levels entry in the series with GM16513 cells [2] (treatment over 3 days) is “increased”. Besides, the “% PI+ cells” value in the series with GM16513 cells [3] (1.3 µM) stood at 6%; with GM16513 cells [3] (10 µM) it was 29%. For the same molecule, the “d4-C16,C18,C20 and C22 levels” value in the series with GM16513 cells [4] (3 days of treatment, dose response manner) is “increase”.

The values above are taken from patent EP4410284A1, “COMPOUND AND METHOD FOR THE TREATMENT OF ZELLWEGER SPECTRUM DISORDER” (Apteeus, priority 2023, dated 2024).
